Data: patent US9187523B2 (priority 2006, dated 2015)
Where a SMILES comes first, the peptide text is derived from it. The star is where a group is joined. Dabcyl = CN(C)c1ccc(N=Nc2ccc(C(=O)*)cc2)cc1; EDANS = O=S(=O)(O)c1cccc2c(NCCN*)cccc12

Tested on: Yersinia pestis cells lacking plague plasminogen activator gene
Assay type: cell-based

SMILES: CC[C@H](C)[C@H](NC(=O)[C@H](CCCNC(=N)N)NC(=O)[C@H](CCCNC(=N)N)NC(=O)c1ccc(N=Nc2ccc(N(C)C)cc2)cc1)C(=O)N[C@@H](CC(N)=O)C(=O)N[C@@H](CCCNC(=N)N)C(=O)N[C@@H](CCC(=O)NCCNc1cccc2c(S(=O)(=O)O)cccc12)C(N)=O [DABCYL-Arg-Arg-Ile-Asn-Arg-Glu-(EDANS)-NH2] (Dabcyl-RRINRE(EDANS)-NH2)
- fluorescence with Pla-negative mutant: low background fluorescence
